In patent publication US8710071B2, “Compounds, compositions and methods for reducing lipid levels” (CVI Pharmaceuticals Limited, priority 2008, dated 2014):
Entries after “also recorded” stand apart in the source; their conditions may differ.

What was measured:
LDLR mRNA [1] = test: LDLR mRNA expression in HepG2 cells, semi-quantitative RT-PCR; format: cell-based, human; settings: indicated doses, 8 hours, semi-quantitative RT-PCR (FIG. 3)
Method: HepG2 cells obtained from American Tissue Culture Collection (Manassas, Va., USA) were seeded in 6-well culture plates at a density of 0.8×10^6 cells/well cultured in EMEM containing 0.5% FBS and were treated with each purified compound at indicated doses for 8 hours. Total RNA was isolated, and 2 μg per sample was reverse transcribed with random primers using M-MLV (Promega) at 37° C. for 1 hour. PCR was carried out at 94° C. for 30 sec, 60° C. for 30 sec, and 72° C. for 30 sec with initial activation of the enzyme at 94° C. for 1 minute. Thirty cycles were performed for LDLR and GAPDH. PCR was performed using primers HLDLR-up and HLDLR-lo for LDLR and primers HGAPDH-up and HGAPDH-lo for GAPDH. The PCR products were separated on a 1% agarose gel and the band intensity was quantitated. LDLR mRNA levels were corrected by measuring GAPDH mRNA levels.
Specific stereochemical requirements of +1-THP in the upregulation of LDLR mRNA expression were determined by a similar experiment. HepG2 cells were treated with the pure 14R-(+)-THP or the pure 14S-(−)-THP at the indicated concentrations for 24 hours. The levels of LDLR mRNA and GAPDH mRNA in untreated and the compound-treated HepG2 cells were assessed by semi-quantitative RT-PCR.

HepG2 cells = test: DiI-LDL uptake (LDLR ligand uptake activity) in HepG2 cells; format: cell-based, human; settings: for Activity on DiI-LDL uptake: 20 hours; for Activity in LDL uptake at 40 uM (relative to control): 20 hours (second symbol of the cell); for Activity in LDL uptake at 10 uM (relative to control): 20 hours (first symbol of the cell)
Method: HepG2 cells (2×10^5 cells/well) in 24-well culture plates were treated with various compounds at indicated concentrations for 20 hours. The fluorescent 1.1′-dioctadecyl-3,3,3′,3′-tetramethylindocarbocyanin perchlorate (DiI-LDL) (Biomedical Technologies, Stoughton, Mass.) at a concentration of 2 μg/mL was added to cells at the end of treatment. After 4 hours, the medium was removed, cells were washed with cold PBS, and were examined immediately under a fluorescent microscope (Nikon) at 200× amplification. The fluorescent intensity in compound-treated cells was compared to that in untreated control cells. […] In these experiments berberine chloride was used for comparison.
The combined beneficial effects of these novel compounds on elevation of LDLR mRNA levels likely through the mechanism of mRNA stabilization and their inhibitory activity towards PCSK9, the secreted protease that degrades LDLR protein, result in strong increases in LDL ligand uptake activity through increased receptor surface abundance. […] Briefly, HepG2 cells (2×10^5 cells/well) in 24-well culture plates were treated with various compounds at 10 and 40 uM concentrations for 20 hours. The fluorescent 1.1′-dioctadecyl-3,3,3′,3′-tetramethylindocarbocyanin perchlorate (DiI-LDL) (Biomedical Technologies, Stoughton, Mass.) at a concentration of 2 μg/ml was added to cells at the end of treatment. After 4 hours, the medium was removed; cells were washed with cold PBS, and were examined immediately under a fluorescent microscope (Nikon) at 200× amplification. The fluorescent intensity in compound-treated cells was compared to that in untreated control cells. […]

ERK = ERK activation in HepG2 cells, Western blot with anti-phosphorylated ERK; format: cell-based, human; settings: 20 μg/mL, 0.5, 2, or 8 hours (FIG. 5)
Method: HepG2 cells cultured in 60-mm dishes were treated with various compounds at a concentration of 15 μg/ml for 2 hours. Total cell lysate was isolated and 50 μg of protein was separated on SDS-PAGE and transferred to nitrocellulose membrane.
HepG2 cells were treated with 20 μg/mL 14R,13S-(+)-CRDL and 14R-(+)-THP respectively for 0.5, 2, or 8 hours. Cells were then lysed. After protein quantitation using the BCA™ protein assay reagent (PIERCE), 50 μg protein from each sample was subjected to SDS-PAGE, followed by Western blotting using anti-phosphorylated ERK (Cell Signaling) and subsequently reprobed with antibody against β-actin.

[2] = test system: acetyl coenzyme A carboxylase (ACC); test: ACC phosphorylation in HepG2 cells, Western blot; format: cell-based, human; settings: 20 μg/ml, 0.5, 2, or 8 hours (FIG. 6)
Method: HepG2 cells were treated with 20 μg/ml14R-(+)-THP for 0.5, 2, or 8 hours. Cells were lysed, and 50 μg protein from each sample was subjected to SDS-PAGE, followed by Western blotting using anti-phosphorylated ACC (Cell Signaling) and subsequently reprobed with antibody against β-actin.
Cells were harvested after 1, 2, and 3 days treatment and western blot analysis was conducted using antibodies directed to LDLR and PCSK9. Chicken anti-LDLR was purchased from Abeam, the mouse anti-PCSK9 was purchased from Cayman Chemicals, and anti-pACC was purchased from Cell Signaling.

hyperlipidemic rabbits = test: Lipid lowering effects and blood chemistry in hyperlipidemic rabbits; settings: day 14, doses increased after day 7 to 60 mg/kg (128(+)/128(−)) and 10 mg/kg (SMV/ATV), mean ± SD
Method: Forty-two male Japanese rabbits were fed the cholesterol enriched rabbit diet for two weeks to induce hypercholesterolemia. […] Serum samples were collected at day 0 (before the drug treatment) and day 7. […] All tested animals were sacrified at the end of a total of 14 days treatment and serum samples were analyzed for TC, LDL-C, TG, and HDL-C. In addition to lipid profiles, a number of biochemical parameters were also analyzed to aseesee the effects of drug treatments on liver function, muscle function, kidney function, and heart function.

[3] = test system: Wister male rats under a high fat and high cholesterol diet; test: Lipid lowering effects of (14R,13S)-CRDL hydrochloride salt in Wister rats; format: in vivo, rat; settings: 75 mg/kg daily orally
Method: Male Wister rats were used as an animal model to examine the in vivo effects of (14R,13S)—CRDL in plasma lipid levels.
In one experiment, 18 Wister male rats under a high fat and high cholesterol diet were divided into 2 groups. One group was given (14R,13S)—CRDL hydrochloride salt orally at a daily dose of 75 mg/kg by an orogastric tube for 4 weeks, and the control group received daily treatment of equal amount of vehicle (0.1 M sodium phosphate, pH 3.5). Serum lipid levels were measured weekly.
At the end of treatment, Rats were sacrificed and blood and sera were collected to measure several critical parameters for liver function and kidney function. […] Kidney function and blood glucose level were not changed by the treatment.

LDLR mRNA [4] = test: LDLR mRNA expression in HepG2 cells, quantitative real-time RT-PCR; format: cell-based, human; settings: Homo sapiens, 24 hours, mean ± s.d.; for fold induction at 10 µM: read-out: Activity on LDLR mRNA at 10 uM (fold of control); for fold induction at 40 µM: read-out: Activity on LDLR mRNA at 40 uM (fold of control)
Method: Activities of some compounds of Formulas I, II, III, and IV on LDLR mRNA expression were determined. HepG2 cells were treated with new compounds individually at a dose less than or equal to 10 μM for 24 hours. Total RNA was harvested for quantitative real-time RT-PCR analysis using the method described in Example 16B. […] In these experiments, berberine chloride was included for comparison.
The time-dependent effects of compounds of Formula I, II, III, and IV on the upregulation of LDLR mRNA and the inhibition of PCSK9 mRNA expression were examined (Horton J D, Cohen J C, Hobbs H I T. “Molecular biology of PCSK9: its role in LDL metabolism” TRENDS in Biochemical Sciences 2007; 32:71-77). HepG2 cells were treated with new compounds individually at 20 uM dose for 1 day, 2 day, and 3 days. Total RNA was isolated and 2 μg was used to generate cDNA in a reaction containing random primers and M-MLV at 37° C. for 1 hour in a volume of 25 μl. Real-time PCR was performed on the cDNA using MCEP REALPLEX 2 SYSTEM (Eppendorf) and Universal MasterMix (Applied Biosystems). Human LDLR, PCSK9, and GAPDH Pre-Developed TaqMan Assay Reagents (Applied Biosystems) were used to assess the levels of mRNA expressions in HepG2. The levels of LDLR mRNA or PCSK9 mRNA were normalized to that of GAPDH. Each RNA samples was assayed in triplicate. The abundance of LDLR mRNA or PCSK9 mRNA in untreated cells was defined as 1, and the amounts of LDLR mRNA or PCSK9 from compound-treated cells were plotted relative to that value (FIG. 10). The data shown are mean±s.d.
Total RNA was harvested for quantitative real-time RT-PCR analysis using method described in Examples 16B.
The effects of 23 compounds on the mRNA expressions of LDLR and PCSK9 were examined using quantitative real-time RT-PCR assays. HepG2 cells were treated with various compounds at 10 and 40 uM concentrations for 24 hours. Total RNA was isolated and […] was used to generate cDNA in a reaction containing random primers and M-MLV at 37° C. for 1 h in a volume of 25 μl. Real-time PCR was performed on the cDNA using MCEP REALPLEX 2 SYSTEM (Eppendorf) and Universal MasterMix (Applied Biosystems). Human LDLR, PCSK9, and GAPDH Pre-Developed TaqMan Assay Reagents (Applied Biosystems) were used to assess the levels of mRNA expressions in HepG2. The levels of LDLR and PCSK9 mRNA were normalized to that of GAPDH. Each RNA samples was assayed in duplicate. The fold activity was calculated by dividing mRNA abundance in compound treated cells with that of control.

COc1cc2c(cc1OC)[C@H]1[C@@H](C)c3ccc(OC)c(OC)c3CN1CC2 [14R,13S-(+)-CRDL, 14R,13S-(+)-corydaline]
LDLR mRNA expression (LDLR mRNA [1]): potent and dose-dependent effects
Activity on DiI-LDL uptake (HepG2 cells; B: compound dose ≦ 40 μM): ++
activation of ERK (ERK): activation of ERK

COc1cc2c(cc1O)CCN1Cc3c(ccc(OC)c3OC)CC21 (stereo not drawn) [14R-(+)-CRPM, 14R-(+)-corypalmine]
LDLR mRNA expression (LDLR mRNA [1]): potent and dose-dependent effects
Activity on DiI-LDL uptake (HepG2 cells; A: compound dose ≦ 10 μM): ++

COc1cc2c(cc1OC)[C@H]1Cc3ccc(OC)c(OC)c3CN1CC2 [14R-(+)-THP, 14R-(+)-tetrahydropalmatine]
LDLR mRNA expression (LDLR mRNA [1]): potent and dose-dependent effects
Activity on DiI-LDL uptake (HepG2 cells; B: compound dose ≦ 40 μM): ++
activation of ERK (ERK): activation of ERK
ACC phosphorylation [2]: induction of ACC phosphorylation

CC(C)c1c(C(=O)Nc2ccccc2)c(-c2ccccc2)c(-c2ccc(F)cc2)n1CC[C@@H](O)C[C@@H](O)CC(=O)O [ATV, atorvastatin, reference compound]
serum total cholesterol levels, treatment day 14 (hyperlipidemic rabbits): 33.9 ± 6.5

COc1cc2c(cc1OC)[C@H]1[C@@H](C)c3ccc(OC)c(OC)c3CN1CC2 [CRDL, corydaline]
serum levels of AST and ALT (liver function) ([3]; end of 4-week treatment, versus control group, 75 mg/kg): liver function was not damaged; also recorded: statistically lower
adverse effects ([3]; entire 4-week treatment): No any adverse effects were observed

COc1ccc2c(c1)CCN1Cc3c(ccc(OC)c3OS(=O)(=O)c3ccccc3)CC21 (stereo not drawn) [Compound 115, 3,10-Dimethoxy-5,6,7,8,13,13a-hexahydroisoquinolino[2,1-b]isoquinolin-9-yl benzenesulfonate]
Activity in LDL uptake at 40 uM (relative to control) (HepG2 cells): +++
fold induction at 10 µM (LDLR mRNA [4]): 0.51 ± 0.11
fold induction at 40 µM (LDLR mRNA [4]): 2.65 ± 0.06

COc1ccc2c(c1OS(=O)(=O)c1ccccc1)CN1CCc3cc4c(cc3C1C2)OCCO4 (stereo not drawn) [Compound 116, 11-Methoxy-6,7,8,9,14,14a-hexahydro-2H,3H-1,4-dioxano[5,6-g]isoquinoluio[3,2-a]isoquinolin-10-yl benzenesulfonate]
fold induction at 10 µM (LDLR mRNA [4]): 1.41 ± 0.04
fold induction at 40 µM (LDLR mRNA [4]): 7.19 ± 1.29

COc1ccc2c(c1OS(=O)(=O)c1ccccc1)CN1CCc3cc(C)ccc3C1C2 (stereo not drawn) [Compound 121, 10-Methoxy-3-methyl-5,6,7,8,13,13a-hexahydroisoquinolino[2,1-b]isoquinofin-9-yl benzenesulfonate]
Activity in LDL uptake at 10 uM (relative to control) (HepG2 cells): +++
Activity in LDL uptake at 40 uM (relative to control) (HepG2 cells): +

COc1cc2c(cc1C(=O)NCCO)C1Cc3ccc(OC)c(OS(=O)(=O)c4ccccc4)c3CN1CC2 (stereo not drawn) [Compound 137, 2-[N-(2-hydroxyethyl)carbamoyl]-3,10-dimethoxy-5,6,7,8,13,13a-hexahydroisoquinolino[2,1-b]isoquinolin-9-yl benzenesulfonate]
Activity in LDL uptake at 10 uM (relative to control) (HepG2 cells): +
Activity in LDL uptake at 40 uM (relative to control) (HepG2 cells): +++

COc1cc2c(cc1OCCO)CCN1Cc3c(ccc(OC)c3OS(=O)(=O)c3ccccc3)CC21 (stereo not drawn) [Compound 138, 3-(2-Hydroxyethoxy)-2,10-dimethoxy-5,6,7,8,13,13a-hexahydroisoquinolino[2,1-b]isoquinolin-9-yl benzenesulfonate]
Activity in LDL uptake at 10 uM (relative to control) (HepG2 cells): +
Activity in LDL uptake at 40 uM (relative to control) (HepG2 cells): +++

CCC(C)(C)C(=O)O[C@H]1C[C@@H](C)C=C2C=C[C@H](C)[C@H](CC[C@@H]3C[C@@H](O)CC(=O)O3)[C@H]21 [SMV, simvastatin, reference compound]
serum total cholesterol levels, treatment day 14 (hyperlipidemic rabbits): 26.2 ± 5.5
